Results on 6 compounds are retold here after US20100144674A1, “PYRIDAZINE DERIVATIVES” (SYNGENTA CROP PROTECTION, INC., priority 2006, published 2010).

In one series the test system is Septoria Tritici. Kind of series: Septoria tritici / wheat / preventive (Septoria leaf spot). It counts as in vivo. The note with it: Zymoseptoria tritici, preventive spray, wheat plants cv. Riband, assessed 16-18 days after inoculation, read-out: inhibits fungal infestation. On the procedure:
Septoria Tritici/Wheat/Preventive (Action Against Septoria Leaf Spot on Wheat) 2 weeks old wheat plants cv. Riband are treated with the formulated test compound in a spray chamber. One day after application wheat plants are inoculated by spraying a spore suspension (10^6 conidia/ml) on the test plants. After an incubation period of 1 day at 22° C./21° C. and 95% r. h. plants are kept at 22° C./21° C. and 70% r.h. in a greenhouse. The disease incidence is assessed 16-18 days after inoculation.

For series [1], the system named is Pyrenophora Teres (Helminthosporium Teres). In words: Pyrenophora teres (Helminthosporium teres) / barley / preventive (net blotch). It counts as in vivo. The note with it: 96 h, preventive spray, barley plants cv. Regina, assessed 4 days after inoculation, read-out: inhibit fungal infestation. On the procedure:
Pyrenophora Teres (Helminthosporium Teres)/Barley/Preventive (Action Against Net Blotch on Barley) 1-week-old barley plants cv. Regina are treated with the formulated test compound in a spray chamber. Two days after application barley plants are inoculated by spraying a spore suspension (2.6×10^4 conidia/ml) on the test plants. After an incubation period of 4 days at 20° C. and 95% r. h. the disease incidence is assessed.

For another series, the system named is Botrytis Cinerea. In words: Botrytis cinerea / tomato / preventive. It counts as in vivo. As to conditions: 72 h, preventive spray, tomato plants cv. Roter Gnom, assessed 3 days after inoculation, read-out: inhibit fungal infestation. The method, then: Botrytis Cinerea/Tomato/Preventive (Action Against Botrytis on Tomato) 4 weeks old tomato plants cv. Roter Gnom are treated with the formulated test compound in a spray chamber. Two days after application tomato plants are inoculated by spraying a spore suspension on the test plants. After an incubation period of 3 days at 20° C. and 95% r. h. in a greenhouse the disease incidence is assessed.

Series [2] concerns Magnaporthe Grisea (Pyricularia Oryzae). In words: whole plant or invertebrate. In kind it is in vivo. As to conditions: 144 h, read-out: inhibit fungal infestation.
A further series concerns Puccinia Recondita. Kind of series: Puccinia recondita / wheat / preventive (brown rust). It counts as in vivo. The note with it: 264 h, preventive spray, wheat plants cv. Arina, assessed 11 days after inoculation, read-out: inhibits fungal infestation. The method, then:
Puccinia Recondita/Wheat/Preventive (Action Against Brown Rust on Wheat) 1 week old wheat plants cv. Arina are treated with the formulated test compound in a spray chamber. One day after application wheat plants are inoculated by spraying a spore suspension ([…] uredospores/ml) on the test plants. After an incubation period of 1 day at 20° C. and 95% r. h. plants are kept for 10 days 20° C./18° C. (day/night) and 60% r.h. in a greenhouse. The disease incidence is assessed 11 days after inoculation.

The test system of another series is Alternaria Solani. Kind of series: Alternaria solani / tomato / preventive. In kind it is in vivo. As to conditions: 96 h, preventive spray, tomato plants cv. Roter Gnom, assessed 4 days after inoculation, read-out: inhibit fungal infestation. On the procedure: Alternaria Solani/Tomato/Preventive (Action Against Alternaria on Tomato) 4 weeks old tomato plants cv. Roter Gnom are treated with the formulated test compound in a spray chamber. Two days after application tomato plants are inoculated by spraying a spore suspension on the test plants. After an incubation period of 4 days at 22° C./18° C. and 95% r. h. in a greenhouse the disease incidence is assessed.

Another series relates to Uncinula Necator. In words: Uncinula necator / grape / preventive (powdery mildew). The note with it: Erysiphe necator, 168 h, preventive spray, grape seedlings cv. Gutedel, assessed 7 days after inoculation, read-out: inhibit fungal infestation. It counts as in vivo. On the procedure:
Uncinula Necator/Grape/Preventive (Action Against Powdery Mildew on Grape) 5 weeks old grape seedlings cv. Gutedel are treated with the formulated test compound in a spray chamber. One day after application grape plants are inoculated by shaking plants infected with grape powdery mildew above the test plants. After an incubation period of 7 days at 24° C./22° C. and 70% r. h. under a light regime of 14/10 h (light/dark) the disease incidence is assessed.

On to `Cc1nnc(F)c(-c2c(F)cc(F)cc2F)c1-c1ccc2ccccc2c1` [I.ae.197, 3-fluoro-6-methyl-5-naphthalen-2-yl-4-(2,4,6-trifluorophenyl)-pyridazine], for which the melting point (in general, the temperature of the solid-liquid transition) was in the range of 108 to 110 °C. Besides, the inhibition at 200 ppm in the series with Septoria Tritici was no less than 80%. Besides, in series [1], the inhibition at 200 ppm is no less than 80%. For the same compound, the inhibition at 200 ppm in the series with Botrytis Cinerea is no less than 80%. Moreover, the inhibition at 200 ppm in series [2] is no less than 80%. Also, in the series on Puccinia Recondita, the inhibition at 200 ppm is no less than 80%.
`Cc1n[nH]c(=O)c(-c2c(F)cc(F)cc2F)c1-c1ccc2ccccc2c1` [I.ae.196, 6-methyl-5-naphthalen-2-yl-4-(2,4,6-trifluorophenyl)-2H-pyridazin-3-one] registered a melting point of 266 to 268 °C.
In turn, `Cc1nnc(C)c(-c2c(F)cccc2Cl)c1-c1ccc2ccccc2c1` [I.ae.080, 4-(2-chloro-6-fluorophenyl)-3,6-dimethyl-5-naphthalen-2-yl-pyridazine] displayed a melting point of 120 to 123 °C. In addition, the inhibition at 200 ppm with Septoria Tritici was no less than 80%. The inhibition at 200 ppm with Alternaria Solani was no less than 80%. Moreover, the inhibition at 200 ppm in series [2] is no less than 80%.
With `Cc1nnc(Cl)c(-c2c(F)cc(F)cc2F)c1-c1ccc2ccccc2c1` [I.ae.198, 3-chloro-6-methyl-5-naphthalen-2-yl-4-(2,4,6-trifluorophenyl)-pyridazine], the melting point was in the range of 86 to 89 °C. In addition, the inhibition at 200 ppm in the series with Uncinula Necator is no less than 80%. Also, in the series with Septoria Tritici, the inhibition at 200 ppm is no less than 80%. Further, the inhibition at 200 ppm in the series with Alternaria Solani is no less than 80%. Besides, the inhibition at 200 ppm in series [1] is no less than 80%. The inhibition at 200 ppm with Botrytis Cinerea was no less than 80%. Also, in series [2], the inhibition at 200 ppm was no less than 80%. For the same compound, the inhibition at 200 ppm in the series on Puccinia Recondita is no less than 80%.
As to `COc1nnc(C)c(-c2ccc3ccccc3c2)c1-c1c(F)cc(F)cc1F` [I.ae.199, 3-methoxy-6-methyl-5-naphthalen-2-yl-4-(2,4,6-trifluorophenyl)-pyridazine], the melting point lay in the range of 138 to 140 °C. For the same compound, in the series with Uncinula Necator, the inhibition at 200 ppm was no less than 80%. The inhibition at 200 ppm in the series on Alternaria Solani was no less than 80%. Besides, in series [1], the inhibition at 200 ppm is no less than 80%. Moreover, the inhibition at 200 ppm in the series on Botrytis Cinerea was no less than 80%.
Compound `COc1nnc(C)c(-c2ccc3ccccc3c2)c1-c1c(F)cccc1Cl` [I.ae.079, 4-(2-chloro-6-fluorophenyl)-3-methoxy-6-methyl-5-naphthalen-2-yl-pyridazine] displayed a melting point of 182 to 184 °C. Besides, the inhibition at 200 ppm in the series with Uncinula Necator is no less than 80%. Also, in the series on Botrytis Cinerea, the inhibition at 200 ppm was no less than 80%. Further, the inhibition at 200 ppm in series [2] was no less than 80%.
